# Assay results from article PMC10239507, “Development of allosteric and selective CDK2 inhibitors for contraception with negative cooperativity to cyclin binding” (Nature Communications, 2023).
# Columns and labels:
# Experiment in all cases: biochemical
# [1] = molecular target: T1, 371 kinases (kinase named in each endpoint) (Homo sapiens, UniProt P45983); conditions: JNK1
# T1 construct: purchased Reaction Biology
# [2] = molecular target: T2, 371 kinases (kinase named in each endpoint) (Homo sapiens, UniProt Q9P289); conditions: MST4
# T2 construct: purchased Reaction Biology
# [3] = molecular target: T3, 371 kinases (kinase named in each endpoint) (Homo sapiens, UniProt Q02779); conditions: MLK2/MAP3K10
# T3 construct: purchased Reaction Biology
# [4] = molecular target: T4, 371 kinases (kinase named in each endpoint) (Homo sapiens, UniProt P17252); conditions: PKCA
# T4 construct: purchased Reaction Biology
# [5] = molecular target: T5, 371 kinases (kinase named in each endpoint) (Homo sapiens, UniProt Q9BUB5); conditions: MNK1
# T5 construct: purchased Reaction Biology
# [6] = molecular target: T6, 371 kinases (kinase named in each endpoint) (Homo sapiens, UniProt Q8N5S9); conditions: CAMKK1
# T6 construct: purchased Reaction Biology
# [7] = molecular target: T7, 371 kinases (kinase named in each endpoint) (Homo sapiens, UniProt Q9UBS0); conditions: P70S6KB/RPS6KB2
# T7 construct: purchased Reaction Biology
# [8] = molecular target: T8, 371 kinases (kinase named in each endpoint) (Homo sapiens, UniProt Q15418); conditions: RSK1
# T8 construct: purchased Reaction Biology
# [9] = molecular target: T9, 371 kinases (kinase named in each endpoint) (Homo sapiens, UniProt P29597); conditions: TYK2
# T9 construct: purchased Reaction Biology
# [10] = molecular target: T10, 371 kinases (kinase named in each endpoint) (Homo sapiens, UniProt P35626); conditions: GRK3
# T10 construct: purchased Reaction Biology
# [11] = molecular target: T11, 371 kinases (kinase named in each endpoint) (Homo sapiens, UniProt P57078); conditions: RIPK4
# T11 construct: purchased Reaction Biology
# [12] = molecular target: T12, 371 kinases (kinase named in each endpoint) (Homo sapiens, UniProt P05771); conditions: PKCB1
# T12 construct: purchased Reaction Biology
# [13] = molecular target: T13, 371 kinases (kinase named in each endpoint) (Homo sapiens, UniProt Q13873); conditions: BMPR2
# T13 construct: purchased Reaction Biology
# [14] = molecular target: T14, 371 kinases (kinase named in each endpoint) (Homo sapiens, UniProt P51955); conditions: NEK2
# T14 construct: purchased Reaction Biology
# [15] = molecular target: T15, 371 kinases (kinase named in each endpoint) (Homo sapiens, UniProt Q8IYT8); conditions: ULK2
# T15 construct: purchased Reaction Biology
# [16] = molecular target: T16, 371 kinases (kinase named in each endpoint) (Homo sapiens, UniProt O15146); conditions: MUSK
# T16 construct: purchased Reaction Biology
# [17] = molecular target: T17, 371 kinases (kinase named in each endpoint) (Homo sapiens, UniProt P36896); conditions: ALK4/ACVR1B
# T17 construct: purchased Reaction Biology
# [18] = molecular target: T18, 371 kinases (kinase named in each endpoint) (Homo sapiens, UniProt Q8TD08); conditions: ERK7/MAPK15
# T18 construct: purchased Reaction Biology
# [19] = molecular target: T19, 371 kinases (kinase named in each endpoint) (Homo sapiens, UniProt Q02763); conditions: TIE2/TEK
# T19 construct: purchased Reaction Biology
# [20] = molecular target: T20, 371 kinases (kinase named in each endpoint) (Homo sapiens, UniProt P51813); conditions: BMX/ETK
# T20 construct: purchased Reaction Biology
# [21] = molecular target: T21, 371 kinases (kinase named in each endpoint) (Homo sapiens, UniProt Q8IVT5); conditions: KSR1
# T21 construct: purchased Reaction Biology
# [22] = molecular target: T22, 371 kinases (kinase named in each endpoint) (Homo sapiens, UniProt Q9UKE5); conditions: TNIK
# T22 construct: purchased Reaction Biology
# [23] = molecular target: T23, 371 kinases (kinase named in each endpoint) (Homo sapiens, UniProt Q07912); conditions: ACK1
# T23 construct: purchased Reaction Biology
# [24] = molecular target: T24, 371 kinases (kinase named in each endpoint) (Homo sapiens, UniProt Q96NX5); conditions: CAMK1G
# T24 construct: purchased Reaction Biology
# [25] = molecular target: T25, 371 kinases (kinase named in each endpoint) (Homo sapiens, UniProt Q02156); conditions: PKCEPSILON
# T25 construct: purchased Reaction Biology
# [26] = molecular target: T26, 371 kinases (kinase named in each endpoint) (Homo sapiens, UniProt P42681); conditions: TXK
# T26 construct: purchased Reaction Biology
# [27] = molecular target: T27, 371 kinases (kinase named in each endpoint) (Homo sapiens, UniProt Q8IVH8); conditions: GLK/MAP4K3
# T27 construct: purchased Reaction Biology
# [28] = molecular target: T28, 371 kinases (kinase named in each endpoint) (Homo sapiens, UniProt Q00536); conditions: CDK16/CYCLIN Y (PCTAIRE)
# T28 construct: purchased Reaction Biology
# [29] = molecular target: T29, 371 kinases (kinase named in each endpoint) (Homo sapiens, UniProt P05129); conditions: PKCG
# T29 construct: purchased Reaction Biology
# [30] = molecular target: T30, 371 kinases (kinase named in each endpoint) (Homo sapiens, UniProt Q13177); conditions: PAK2
# T30 construct: purchased Reaction Biology
# [31] = molecular target: T31, 371 kinases (kinase named in each endpoint) (Homo sapiens, UniProt Q15208); conditions: STK38/NDR1
# T31 construct: purchased Reaction Biology
# [32] = molecular target: T32, 371 kinases (kinase named in each endpoint) (Homo sapiens, UniProt O15111); conditions: IKKA/CHUK
# T32 construct: purchased Reaction Biology
# [33] = molecular target: T33, 371 kinases (kinase named in each endpoint) (Homo sapiens, UniProt P04626); conditions: ERBB2/HER2
# T33 construct: purchased Reaction Biology
# [34] = molecular target: T34, 371 kinases (kinase named in each endpoint) (Homo sapiens, UniProt Q9UQM7); conditions: CAMK2A
# T34 construct: purchased Reaction Biology
# [35] = molecular target: T35, 371 kinases (kinase named in each endpoint) (Homo sapiens, UniProt Q13464); conditions: ROCK1
# T35 construct: purchased Reaction Biology
# [36] = molecular target: T36, 371 kinases (kinase named in each endpoint) (Homo sapiens, UniProt Q9HC98); conditions: NEK6
# T36 construct: purchased Reaction Biology
# [37] = molecular target: T37, 371 kinases (kinase named in each endpoint) (Homo sapiens, UniProt Q92918); conditions: HPK1/MAP4K1
# T37 construct: purchased Reaction Biology
# T37 sequence (Q92918 whole entry): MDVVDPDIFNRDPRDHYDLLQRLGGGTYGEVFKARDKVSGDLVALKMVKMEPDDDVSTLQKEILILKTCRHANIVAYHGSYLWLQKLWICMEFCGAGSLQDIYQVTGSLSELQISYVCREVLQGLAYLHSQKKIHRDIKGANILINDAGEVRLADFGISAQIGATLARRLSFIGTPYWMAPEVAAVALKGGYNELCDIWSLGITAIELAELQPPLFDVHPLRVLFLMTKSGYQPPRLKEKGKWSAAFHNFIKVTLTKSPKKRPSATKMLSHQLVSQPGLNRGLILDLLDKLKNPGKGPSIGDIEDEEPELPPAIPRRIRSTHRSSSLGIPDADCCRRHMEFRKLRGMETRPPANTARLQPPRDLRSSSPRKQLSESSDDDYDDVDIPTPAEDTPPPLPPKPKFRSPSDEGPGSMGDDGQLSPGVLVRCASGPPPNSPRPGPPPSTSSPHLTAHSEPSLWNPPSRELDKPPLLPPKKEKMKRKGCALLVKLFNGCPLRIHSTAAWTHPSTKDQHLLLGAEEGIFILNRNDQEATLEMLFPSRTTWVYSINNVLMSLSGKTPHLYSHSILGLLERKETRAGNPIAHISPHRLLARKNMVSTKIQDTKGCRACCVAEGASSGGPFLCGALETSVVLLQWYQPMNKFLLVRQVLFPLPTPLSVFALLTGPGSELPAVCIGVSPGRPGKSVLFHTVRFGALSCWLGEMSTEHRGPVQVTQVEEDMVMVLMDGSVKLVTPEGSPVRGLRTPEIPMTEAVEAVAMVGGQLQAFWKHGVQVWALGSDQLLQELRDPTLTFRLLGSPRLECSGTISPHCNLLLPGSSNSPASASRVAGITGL
# T24 sequence (Q96NX5 whole entry): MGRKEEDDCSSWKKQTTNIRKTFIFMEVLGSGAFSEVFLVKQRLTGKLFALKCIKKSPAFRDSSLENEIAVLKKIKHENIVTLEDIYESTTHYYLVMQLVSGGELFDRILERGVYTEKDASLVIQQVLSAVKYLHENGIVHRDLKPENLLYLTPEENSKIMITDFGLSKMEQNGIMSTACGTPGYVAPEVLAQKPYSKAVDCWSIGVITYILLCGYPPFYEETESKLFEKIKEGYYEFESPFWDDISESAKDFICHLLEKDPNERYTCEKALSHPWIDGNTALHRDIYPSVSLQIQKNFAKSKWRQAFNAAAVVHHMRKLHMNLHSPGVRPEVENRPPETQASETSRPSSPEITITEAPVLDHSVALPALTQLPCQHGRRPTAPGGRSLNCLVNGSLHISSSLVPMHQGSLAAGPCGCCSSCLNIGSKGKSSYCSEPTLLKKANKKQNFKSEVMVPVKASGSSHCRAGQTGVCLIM
# T3 sequence (Q02779 whole entry): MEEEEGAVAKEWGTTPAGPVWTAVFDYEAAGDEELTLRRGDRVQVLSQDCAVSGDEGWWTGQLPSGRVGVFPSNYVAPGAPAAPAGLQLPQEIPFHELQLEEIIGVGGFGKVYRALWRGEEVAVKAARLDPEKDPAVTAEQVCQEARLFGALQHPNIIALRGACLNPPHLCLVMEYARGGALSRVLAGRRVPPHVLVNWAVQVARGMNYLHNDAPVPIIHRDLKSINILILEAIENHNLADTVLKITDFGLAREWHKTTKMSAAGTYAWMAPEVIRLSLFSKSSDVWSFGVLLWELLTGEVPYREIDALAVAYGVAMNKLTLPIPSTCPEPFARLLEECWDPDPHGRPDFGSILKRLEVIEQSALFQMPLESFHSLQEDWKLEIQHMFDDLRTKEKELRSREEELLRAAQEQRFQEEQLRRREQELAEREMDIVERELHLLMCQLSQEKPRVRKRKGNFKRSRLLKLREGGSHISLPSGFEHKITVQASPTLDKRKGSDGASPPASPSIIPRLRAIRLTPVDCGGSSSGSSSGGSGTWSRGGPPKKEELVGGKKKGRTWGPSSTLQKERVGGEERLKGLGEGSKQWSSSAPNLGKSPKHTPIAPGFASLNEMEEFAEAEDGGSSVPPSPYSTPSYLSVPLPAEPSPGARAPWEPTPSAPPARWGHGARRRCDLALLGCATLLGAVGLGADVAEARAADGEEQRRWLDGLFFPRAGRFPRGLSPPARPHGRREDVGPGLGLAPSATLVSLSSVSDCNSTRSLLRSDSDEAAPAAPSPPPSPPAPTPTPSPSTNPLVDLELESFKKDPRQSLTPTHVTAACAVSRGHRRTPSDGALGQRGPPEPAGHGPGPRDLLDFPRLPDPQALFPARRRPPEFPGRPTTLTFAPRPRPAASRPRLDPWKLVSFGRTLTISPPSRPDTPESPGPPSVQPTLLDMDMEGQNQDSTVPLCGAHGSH
# T34 sequence (Q9UQM7 whole entry): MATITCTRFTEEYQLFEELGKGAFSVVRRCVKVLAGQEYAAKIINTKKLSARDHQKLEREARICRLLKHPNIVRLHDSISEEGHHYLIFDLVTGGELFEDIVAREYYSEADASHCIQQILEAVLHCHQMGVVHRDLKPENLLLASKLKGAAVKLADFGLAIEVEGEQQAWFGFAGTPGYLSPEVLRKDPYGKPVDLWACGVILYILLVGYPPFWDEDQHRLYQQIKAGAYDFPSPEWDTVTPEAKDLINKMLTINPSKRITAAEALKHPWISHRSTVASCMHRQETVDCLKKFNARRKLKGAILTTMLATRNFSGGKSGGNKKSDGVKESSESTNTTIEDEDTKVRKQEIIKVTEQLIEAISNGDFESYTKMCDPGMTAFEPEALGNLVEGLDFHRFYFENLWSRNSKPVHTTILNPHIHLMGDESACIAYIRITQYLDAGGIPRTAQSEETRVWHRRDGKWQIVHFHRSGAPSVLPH
# T12 sequence (P05771 whole entry): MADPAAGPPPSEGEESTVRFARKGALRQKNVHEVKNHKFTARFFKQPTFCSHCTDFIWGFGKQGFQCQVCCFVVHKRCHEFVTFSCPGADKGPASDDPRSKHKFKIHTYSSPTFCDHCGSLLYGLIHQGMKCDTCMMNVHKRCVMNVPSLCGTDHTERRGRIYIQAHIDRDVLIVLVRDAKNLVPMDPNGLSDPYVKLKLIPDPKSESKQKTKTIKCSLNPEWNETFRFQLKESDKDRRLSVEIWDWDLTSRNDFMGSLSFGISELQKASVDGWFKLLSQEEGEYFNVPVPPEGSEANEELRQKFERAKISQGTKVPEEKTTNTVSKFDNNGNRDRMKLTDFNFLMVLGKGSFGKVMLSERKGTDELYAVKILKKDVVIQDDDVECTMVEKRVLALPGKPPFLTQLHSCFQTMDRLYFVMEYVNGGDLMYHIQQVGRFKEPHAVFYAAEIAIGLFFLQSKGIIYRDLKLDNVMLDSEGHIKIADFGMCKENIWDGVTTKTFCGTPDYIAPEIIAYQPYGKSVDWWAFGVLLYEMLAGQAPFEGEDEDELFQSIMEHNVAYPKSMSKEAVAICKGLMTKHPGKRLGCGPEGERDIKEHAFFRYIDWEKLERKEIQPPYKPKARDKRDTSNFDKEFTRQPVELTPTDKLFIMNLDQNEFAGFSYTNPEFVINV
# T31 sequence (Q15208 whole entry): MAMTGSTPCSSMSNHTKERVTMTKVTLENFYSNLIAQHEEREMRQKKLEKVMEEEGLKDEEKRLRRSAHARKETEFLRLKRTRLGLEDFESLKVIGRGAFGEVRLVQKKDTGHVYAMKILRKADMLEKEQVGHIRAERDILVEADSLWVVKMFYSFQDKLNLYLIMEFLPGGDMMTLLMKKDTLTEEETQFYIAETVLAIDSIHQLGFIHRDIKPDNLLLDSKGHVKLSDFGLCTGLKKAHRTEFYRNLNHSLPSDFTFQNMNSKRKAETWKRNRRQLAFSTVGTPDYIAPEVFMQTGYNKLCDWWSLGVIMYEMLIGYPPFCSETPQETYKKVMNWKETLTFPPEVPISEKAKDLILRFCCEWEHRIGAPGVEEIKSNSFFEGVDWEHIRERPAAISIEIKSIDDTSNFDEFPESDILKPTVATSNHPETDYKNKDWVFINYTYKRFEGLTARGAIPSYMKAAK
# T30 sequence (Q13177 whole entry): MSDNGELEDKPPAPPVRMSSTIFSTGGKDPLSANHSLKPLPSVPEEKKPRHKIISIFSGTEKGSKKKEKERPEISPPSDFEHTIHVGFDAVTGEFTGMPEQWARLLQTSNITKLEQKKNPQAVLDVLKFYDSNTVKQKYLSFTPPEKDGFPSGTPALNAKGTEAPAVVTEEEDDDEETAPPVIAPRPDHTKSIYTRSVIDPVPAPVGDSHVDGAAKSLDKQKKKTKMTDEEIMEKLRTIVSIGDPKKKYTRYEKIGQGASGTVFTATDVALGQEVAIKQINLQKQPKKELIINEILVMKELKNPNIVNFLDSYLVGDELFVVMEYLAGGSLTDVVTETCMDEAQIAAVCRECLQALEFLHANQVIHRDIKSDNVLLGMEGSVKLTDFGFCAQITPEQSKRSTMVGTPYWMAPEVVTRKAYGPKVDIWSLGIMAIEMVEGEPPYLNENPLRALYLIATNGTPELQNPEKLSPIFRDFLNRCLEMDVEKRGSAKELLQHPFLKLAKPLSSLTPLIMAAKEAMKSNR
# T2 sequence (Q9P289 whole entry): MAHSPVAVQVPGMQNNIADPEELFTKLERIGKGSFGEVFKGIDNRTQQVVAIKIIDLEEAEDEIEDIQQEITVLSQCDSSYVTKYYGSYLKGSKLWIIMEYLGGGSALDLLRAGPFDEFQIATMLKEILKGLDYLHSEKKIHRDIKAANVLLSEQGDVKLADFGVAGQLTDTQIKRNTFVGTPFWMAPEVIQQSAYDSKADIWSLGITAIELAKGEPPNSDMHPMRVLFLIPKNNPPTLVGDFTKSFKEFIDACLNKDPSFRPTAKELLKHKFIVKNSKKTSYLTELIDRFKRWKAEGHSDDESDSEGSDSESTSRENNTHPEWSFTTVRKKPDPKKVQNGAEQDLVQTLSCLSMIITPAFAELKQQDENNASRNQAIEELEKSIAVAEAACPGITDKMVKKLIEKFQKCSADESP
compound,measurement,setting,value
"O=C(O)c1cc(C(F)(F)F)ccc1NCCc1c[nH]c2cc(Br)ccc12 [Compound 5, 2-((2-(6-Bromo-1H-indol-3-yl)ethyl)amino)−5-(trifluoromethyl)benzoic Acid]",activity at 10 µM,[1],88.4 ± 1.1%
same,activity at 10 µM,[2],56 ± 0.2%
same,activity at 10 µM,[3],74.8 ± 2.2%
same,activity at 10 µM,[4],123 ± 5.3%
same,activity at 10 µM,[5],79 ± 0.9%
same,activity at 10 µM,[6],65.6 ± 1.3%
same,activity at 10 µM,[7],96.1 ± 1.6%
same,activity at 10 µM,[8],83.1 ± 2.8%
same,activity at 10 µM,[9],78.1 ± 0.7%
same,activity at 10 µM,[10],93.7 ± 1.2%
same,activity at 10 µM,[11],45.4 ± 0.9%
same,activity at 10 µM,[12],91%
same,activity at 10 µM,[13],88 ± 5.4%
same,activity at 10 µM,[14],50.8 ± 1.3%
same,activity at 10 µM,[15],102.4 ± 0.4%
same,activity at 10 µM,[16],104.4 ± 1%
same,activity at 10 µM,[17],66.7 ± 0.1%
same,activity at 10 µM,[18],136 ± 6.1%
same,activity at 10 µM,[19],93.7 ± 0.9%
same,activity at 10 µM,[20],101.8 ± 0.4%
same,activity at 10 µM,[21],92.9 ± 2.5%
same,activity at 10 µM,[22],51.9 ± 1.4%
same,activity at 10 µM,[23],92 ± 0.4%
same,activity at 10 µM,[24],40.8 ± 2.3%
same,activity at 10 µM,[25],96.1 ± 0.2%
same,activity at 10 µM,[26],80.5 ± 0.4%
same,activity at 10 µM,[27],97.8 ± 0.3%
same,activity at 10 µM,[28],76.9 ± 0.5%
same,activity at 10 µM,[29],81.9 ± 1.6%
same,activity at 10 µM,[30],95.6 ± 0.3%
same,activity at 10 µM,[31],88 ± 0.7%
same,activity at 10 µM,[32],83.2 ± 1.4%
same,activity at 10 µM,[33],78 ± 0.2%
same,activity at 10 µM,[34],70.2 ± 3.3%
same,activity at 10 µM,[35],93.3 ± 1.1%
same,activity at 10 µM,[36],77.6 ± 0.1%
same,activity at 10 µM,[37],77.2 ± 0.7%
